The values that follow come from US20050234066A1, “Alpha substituted carboxylic acids” (Agouron Pharmaceuticals, Inc., priority 2004, published 2005).

The target of one experiment is T1, PPAR-γ (Homo sapiens, UniProt P37231).
T1 sequence (P37231 1-505): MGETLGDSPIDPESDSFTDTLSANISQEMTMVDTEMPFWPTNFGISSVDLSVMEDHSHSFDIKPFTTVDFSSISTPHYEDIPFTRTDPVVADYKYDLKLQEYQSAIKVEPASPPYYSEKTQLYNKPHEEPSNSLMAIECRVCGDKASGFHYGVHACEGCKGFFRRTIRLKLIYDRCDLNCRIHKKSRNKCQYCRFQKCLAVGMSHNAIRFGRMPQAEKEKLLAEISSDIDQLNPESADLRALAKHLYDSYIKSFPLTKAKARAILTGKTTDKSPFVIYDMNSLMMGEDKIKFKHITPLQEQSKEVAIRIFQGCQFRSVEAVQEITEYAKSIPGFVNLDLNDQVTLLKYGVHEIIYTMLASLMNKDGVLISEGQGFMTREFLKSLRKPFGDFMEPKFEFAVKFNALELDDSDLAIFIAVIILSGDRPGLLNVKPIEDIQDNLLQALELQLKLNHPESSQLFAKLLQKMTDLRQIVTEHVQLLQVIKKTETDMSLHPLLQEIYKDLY
Description: Scintillation Proximity Assay (SPA), displacement of 3H labeled darglitazone. The format is binding. The settings on record: 3H darglitazone displacement, read-out: PPAR-gamma Ki.

In the next experiment the target is T2, PPAR-α (Homo sapiens, UniProt Q07869).
T2 sequence (Q07869 1-468): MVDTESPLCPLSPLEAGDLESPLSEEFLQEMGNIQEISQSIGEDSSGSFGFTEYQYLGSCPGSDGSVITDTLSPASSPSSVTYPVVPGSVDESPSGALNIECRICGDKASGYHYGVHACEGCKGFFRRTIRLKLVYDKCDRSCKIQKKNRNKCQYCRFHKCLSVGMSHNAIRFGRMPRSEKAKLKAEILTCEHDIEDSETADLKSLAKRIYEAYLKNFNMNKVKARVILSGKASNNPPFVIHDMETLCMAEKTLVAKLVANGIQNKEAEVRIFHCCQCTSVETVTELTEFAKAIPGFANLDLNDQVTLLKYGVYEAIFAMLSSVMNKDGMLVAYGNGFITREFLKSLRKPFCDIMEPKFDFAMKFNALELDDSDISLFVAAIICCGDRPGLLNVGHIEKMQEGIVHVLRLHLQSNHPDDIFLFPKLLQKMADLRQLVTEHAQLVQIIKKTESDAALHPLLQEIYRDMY
Description: Scintillation Proximity Assay (SPA), displacement of 3H labeled GW2331. It counts as binding. To be noted: 3H GW2331 displacement, read-out: PPAR-alpha Ki.

SMILES strings stand for the structures.

Description for PPAR-α: (§1) Scintillatian Proximity Assay (SPA) Assays
(§2) In the SPA assay, 3H labeled darglitazone (for PPAR-γ) or GW2331 (for PPAR-α) is bound to the PPAR protein captured on SPA polylysine beads and generates radioactive count signal that can be detected by TopCounts (Packard). The PPAR-bound 3H labeled ligand can be displaced by an unlabeled compound. The Ki of the compound can be then determined by the extent of displacement at various compound concentrations. Reagents: • SPA polylysine beads, which can be purchased from Amersham Bioscience. • H labeled Darglitazone for PPAR-γ. • H labeled GW2331 for PPAR-α. • PPAR proteins. • Buffer—PBS, 10% glycerol, 14 mM beta-mercaptoethanol.
Description for PPAR-γ: as §1, §2

As for `Cc1oc(-c2ccccc2)nc1CCNC(=O)OCc1cccc(OC(C)(C)C(=O)O)c1` [Example B-21], the Ki at PPAR-γ came out at 990 nM; at PPAR-α, 4000 nM.
Regarding `CCOC(Cc1ccc(OCCc2ccc(OS(=O)(=O)CC)cc2)nc1)C(=O)O` [Example D-18], the Ki at PPAR-γ is 450 nM; at PPAR-α it was 620 nM.
In the case of `Cc1oc(-c2ccccc2)nc1CCOc1ccc(-c2cccc(OC3(C(=O)O)CCC3)c2)cc1` [Example A-10], the values for the Ki on PPAR-γ and on PPAR-α were 1500 nM and 4400 nM, respectively.
Take `COC(C)(Cc1ccc(OCCN(C)c2nc3ccccc3o2)nc1)C(=O)O` [Example D-34]: the Ki worked out at 9100 nM at PPAR-γ and 3200 nM on PPAR-α.
The corresponding values for `Cc1oc(-c2cccc(Cl)c2)nc1CCOc1ccc(CC2(C(=O)O)CCCO2)cc1` (stereo not drawn) [Example C-86] are 5 nM and 13 nM.
Turning to `CCOC(Cc1cccc(CNC(=O)OCCc2nc(-c3ccccc3)oc2C)c1)C(=O)O` (stereo not drawn) [Example B-24], the Ki at PPAR-γ came out at 1600 nM; at PPAR-α it was 1000 nM.
